{"source": "patent US20250101017A1", "about": "“SALT CRYSTAL FORM AND FREE BASE CRYSTAL FORM OF KINASE INHIBITOR” (CYTOSINLAB THERAPEUTICS CO., LTD., priority 2022, published 2025)", "format_in_all_cases": "physicochemical", "key": {"[1]": {"assay": "Solid stability of crystal forms (80° C., light exposure, 25° C./60% RH, 40° C./75% RH); purity by liquid chromatography and XRPD of the solids", "experimental": "A certain amount of API and malate crystal form VII-A were weighed and added into a liquid phase vial, and a total of 9 parallels were prepared. The 9 parallels were placed separately in 80° C. (open); 25° C., 60% RH (open); 40° C., 75% RH (open); and light stability box closed). The stabilities under conditions of: 80° C. for one day, light exposure for 10 days, as well as 25° C., 60% RH and 40° C., 75% RH for one and two weeks were tested, and the XRPD of the solids were measured.\nA certain amount of crystal form B was weighed and added into a liquid phase vial, and a total of 9 parallels were prepared. 9 parallels were placed separately in 80° C.; 25° C., 60% RH, 40° C., 75% RH; and light stability boxe."}, "[2]": {"assay": "Competitive pulping of API (free base Form A) and Form B in saturated DCM or water solution at 50° C., XRPD", "experimental": "A saturated solution of API (free base Form A) in DCM and water was prepared. Approximately 10 mg of API (free base Form A) and free base crystal form Form B was weighed respectively and added into a 4 ml glass bottle, and 1 mL of the saturated solution was added. […] The resulting solid was subjected to XRPD testing."}, "[3]": {"assay": "Dynamic moisture adsorption (DVS), hygroscopicity", "experimental": "DSV pattern determination method: Dynamic moisture adsorption was performed using Intrinsic DVS. In step mode, the sample is subjected to loop testing at a relative humidity of 0-90%. The sample is analyzed at 10% RH. The dm/dt is set to 0.002 to achieve equilibrium between the sample and the room environment.\nApproximately 250 mg of API was weighed and added into a 4 ml glass vial, and 2.5 ml of ethyl acetate was added. The mixture was stirred overnight under magnetic stirring at 50° C., cooled to room temperature, and then filtered, and the obtained solid was dried in vacuum overnight in a 50° C. oven. The resulting solid was free base crystal form Form B. The free base crystal form Form B was subjected to various characterization."}, "[4]": {"assay": "Solubility at 37° C. in buffer solutions with different pH (about 10 mg in 1 ml, 2 h and 24 h); filtrate concentration and pH, XRPD of remaining solid", "conditions": "for solubility at 2 h / solubility at 24 h: read-out: Solubility at 37° C.", "experimental": "Approximately 10 mg of malate crystal form VII-A and free base Form A were weighed separately, and 1 ml of buffer solutions with different pH were added to make the solution supersaturated, and the mixtures were stirred at 37° C. for 2 h and 24 hours. The samples were filtered, and the filtrates were measured to determine the concentration and pH value, and the remaining solid was subjected to XRPD determination. The specific results were as follows: […]"}}, "note": "Where two headings read alike, the source gives them in different places.", "data": [{"smiles": "CCc1nc2c(N)ncc(-c3ccc(N4CCC(N5CCN(CC)CC5)CC4)c(OC)c3)c2nc1NC1CCOCC1", "note": "[Form B, 3-ethyl-8-(4-(4-(4-ethylpiperazin-1-yl)piperidin-1-yl)-3-methoxyphenyl)-N2-(tetrahydro-2H-pyran-4-yl) pyridino [3,4-b]pyrazine-2,5-diamine]", "values": [{"measurement": "Crystal form", "setting": "[1]; 25° C., 60% RH, 1 week", "value": "Unchanged"}, {"measurement": "Degradation", "setting": "[1]; 25° C., 60% RH, 1 week", "value": 0.00, "unit": "%"}, {"measurement": "Purity", "setting": "[1]; 25° C., 60% RH, 1 week", "value": 97.69, "unit": "%"}, {"measurement": "Crystal form", "setting": "[1]; 25° C., 60% RH, 2 weeks", "value": "Unchanged"}, {"measurement": "Degradation", "setting": "[1]; 25° C., 60% RH, 2 weeks", "value": 0.00, "unit": "%"}, {"measurement": "Purity", "setting": "[1]; 25° C., 60% RH, 2 weeks", "value": 97.67, "unit": "%"}, {"measurement": "Crystal form", "setting": "[1]; 40° C., 75% RH, 1 week", "value": "Unchanged"}, {"measurement": "Degradation", "setting": "[1]; 40° C., 75% RH, 1 week", "value": 0.00, "unit": "%"}, {"measurement": "Purity", "setting": "[1]; 40° C., 75% RH, 1 week", "value": 97.70, "unit": "%"}, {"measurement": "Crystal form", "setting": "[1]; 40° C., 75% RH, 2 weeks", "value": "Unchanged"}, {"measurement": "Degradation", "setting": "[1]; 40° C., 75% RH, 2 weeks", "value": 0.01, "unit": "%"}, {"measurement": "Purity", "setting": "[1]; 40° C., 75% RH, 2 weeks", "value": 97.66, "unit": "%"}, {"measurement": "physical and chemical stability", "setting": "[1]; 80° C. 1 day, light 10 days, 25° C./60% RH and 40° C./75% RH 1 and 2 weeks", "value": "good physical and chemical stability"}, {"measurement": "Crystal form", "setting": "[1]; 80° C., 1 day", "value": "Unchanged"}, {"measurement": "Degradation", "setting": "[1]; 80° C., 1 day", "value": 0.17, "unit": "%"}, {"measurement": "Purity", "setting": "[1]; 80° C., 1 day", "value": 97.50, "unit": "%"}, {"measurement": "Crystal form", "setting": "[1]; Light control, 10 days", "value": "Unchanged"}, {"measurement": "Degradation", "setting": "[1]; Light control, 10 days", "value": 0.00, "unit": "%"}, {"measurement": "Purity", "setting": "[1]; Light control, 10 days", "value": 97.67, "unit": "%"}, {"measurement": "Crystal form", "setting": "[1]; Light exposure, 10 days", "value": "Unchanged"}, {"measurement": "Degradation", "setting": "[1]; Light exposure, 10 days", "value": 0.04, "unit": "%"}, {"measurement": "Purity", "setting": "[1]; Light exposure, 10 days", "value": 97.63, "unit": "%"}, {"measurement": "Purity", "setting": "[1]; initial", "value": 97.67, "unit": "%"}, {"measurement": "solid crystal form obtained by competitive pulping", "setting": "[2]; API and Form B together in DCM, 50° C., 3 days, XRPD", "value": "tended to approach Form L"}, {"measurement": "appearance after competitive pulping", "setting": "[2]; API and Form B together in DCM, after 5 days of beating", "value": "became oily"}, {"measurement": "crystal form obtained by competitive pulping", "setting": "[2]; API and Form B together in water, 50° C., 3 days, XRPD", "value": "a mixture of Form B and API"}, {"measurement": "XRPD results", "setting": "[2]; competitive pulping of API and Form B, DCM, 50° C., 3 days", "value": "Form K"}, {"measurement": "crystal form before and after DVS testing", "setting": "[3]", "value": "did not change"}, {"measurement": "solubility compared to API", "setting": "[4]; 37° C., pH 6.8, pH 7.4, FaSSIF and water", "value": "improved compared to API"}, {"measurement": "solubility at 2 h", "setting": "[4]; FaSSIF, 37 °C, fassif, thermodynamic from solid, medium FaSSIF, 2 h", "value": 1190, "unit": "µg/mL"}, {"measurement": "solubility at 24 h", "setting": "[4]; FaSSIF, 37 °C, fassif, thermodynamic from solid, medium FaSSIF, 24 h", "value": 1400, "unit": "µg/mL"}, {"measurement": "solubility at 2 h", "setting": "[4]; FeSSIF, 37 °C, fessif, thermodynamic from solid, medium FeSSIF, 2 h", "value": "> 10000", "unit": "µg/mL"}, {"measurement": "solubility at 24 h", "setting": "[4]; FeSSIF, 37 °C, fessif, thermodynamic from solid, medium FeSSIF, 24 h", "value": "> 10000", "unit": "µg/mL"}, {"measurement": "solubility at 2 h", "setting": "[4]; SGF, 37 °C, simulated gastric fluid, thermodynamic from solid, medium SGF, 2 h", "value": "> 10000", "unit": "µg/mL"}, {"measurement": "solubility at 24 h", "setting": "[4]; SGF, 37 °C, simulated gastric fluid, thermodynamic from solid, medium SGF, 24 h", "value": "> 10000", "unit": "µg/mL"}, {"measurement": "solubility at 2 h", "setting": "[4]; buffer solution pH 6.8, 37 °C, pH 6.8, aqueous buffer, thermodynamic from solid, medium pH 6.8, 2 h", "value": 310, "unit": "µg/mL"}, {"measurement": "solubility at 24 h", "setting": "[4]; buffer solution pH 6.8, 37 °C, pH 6.8, aqueous buffer, thermodynamic from solid, medium pH 6.8, 24 h", "value": 250, "unit": "µg/mL"}, {"measurement": "solubility", "setting": "[4]; buffer solutions: pH 1.2, pH 3.0, pH 4.5, FeSSIF, SGF, 37 °C, aqueous buffer, thermodynamic from solid, 37° C., pH 1.2, pH 3.0, pH 4.5, FeSSIF, and SGF buffer", "value": "> 10000", "unit": "µg/mL"}, {"measurement": "Crystal form", "setting": "[4]; medium FaSSIF, XRPD of remaining solid", "value": "Form B"}, {"measurement": "pH (24 h)", "setting": "[4]; medium FaSSIF, filtrate, 37° C.", "value": 6.755}, {"measurement": "pH (24 h)", "setting": "[4]; medium FeSSIF, filtrate, 37° C.", "value": 5.724}, {"measurement": "Solubility at 37° C.", "setting": "[4]; medium H2O, 24 h", "value": 17.9, "unit": "µg/mL"}, {"measurement": "Crystal form", "setting": "[4]; medium H2O, XRPD of remaining solid", "value": "Form B"}, {"measurement": "pH (24 h)", "setting": "[4]; medium H2O, filtrate, 37° C.", "value": 7.197}, {"measurement": "pH (24 h)", "setting": "[4]; medium SGF, filtrate, 37° C.", "value": 1.910}, {"measurement": "Solubility at 37° C.", "setting": "[4]; medium pH 1.2, 2 h", "value": ">10000", "unit": "µg/mL"}, {"measurement": "Solubility at 37° C.", "setting": "[4]; medium pH 1.2, 24 h", "value": ">10000", "unit": "µg/mL"}, {"measurement": "pH (24 h)", "setting": "[4]; medium pH 1.2, filtrate, 37° C.", "value": 1.925}, {"measurement": "Solubility at 37° C.", "setting": "[4]; medium pH 3.0, 2 h", "value": ">10000", "unit": "µg/mL"}, {"measurement": "Solubility at 37° C.", "setting": "[4]; medium pH 3.0, 24 h", "value": ">10000", "unit": "µg/mL"}, {"measurement": "pH (24 h)", "setting": "[4]; medium pH 3.0, filtrate, 37° C.", "value": 4.892}, {"measurement": "Solubility at 37° C.", "setting": "[4]; medium pH 4.5, 2 h", "value": ">10000", "unit": "µg/mL"}, {"measurement": "Solubility at 37° C.", "setting": "[4]; medium pH 4.5, 24 h", "value": ">10000", "unit": "µg/mL"}, {"measurement": "pH (24 h)", "setting": "[4]; medium pH 4.5, filtrate, 37° C.", "value": 6.062}, {"measurement": "Crystal form", "setting": "[4]; medium pH 6.8, XRPD of remaining solid", "value": "Form B"}, {"measurement": "pH (24 h)", "setting": "[4]; medium pH 6.8, filtrate, 37° C.", "value": 6.813}, {"measurement": "Solubility at 37° C.", "setting": "[4]; medium pH 7.4, 2 h", "value": 47.2, "unit": "µg/mL"}, {"measurement": "Solubility at 37° C.", "setting": "[4]; medium pH 7.4, 24 h", "value": 39.9, "unit": "µg/mL"}, {"measurement": "Crystal form", "setting": "[4]; medium pH 7.4, XRPD of remaining solid", "value": "Form B"}, {"measurement": "pH (24 h)", "setting": "[4]; medium pH 7.4, filtrate, 37° C.", "value": 7.311}, {"measurement": "crystal form in the buffers", "setting": "[4]; remaining solids, XRPD", "value": "remained unchanged"}, {"measurement": "solubility at 2 h", "setting": "[4]; water, 37 °C, water, thermodynamic from solid, medium H2O, 2 h", "value": 39.5, "unit": "µg/mL"}]}]}
